Columns and labels:
human erythrocytes = experiment: Accumulation and retention in human erythrocytes; type: in vitro ADME; details: after washout
Method: The human biological samples were sourced ethically, and their research use was in accord with the terms of the informed consents under an IRB/EC approved protocol. Human erythrocytes were isolated from fresh whole blood. Blood cells were removed from the plasma by centrifugation at 1,650 g and 4°C for 15 min. The pellet was re‐suspended in saline and centrifuged at 3,000 g and at room temperature for 10 min. Supernatant and the upper part of pellet containing leukocytes were discarded. The procedure was repeated three to four times until there were no traces of leukocytes. The quality of erythrocyte isolation was determined on Sysmex SF‐3000 haematological analyser. To measure compound accumulation in cells, erythrocytes (2 × 10^9) were re‐suspended in 3‐ml RPMI 1640 (Gibco, Invitrogen) medium containing 20 μM of tested compounds and incubated at 37°C for 3 or 24 h. Cells were subsequently washed twice in ice‐cold PBS (Sigma) followed by centrifugation at 3,000 g and 4°C for 10 min. The cells were lysed by freezing in 0.5% Triton X‐100 (Sigma) in deionized water. […] Concentrations in lysates were determined by LC–MS/MS. […] To determine intracellular concentration, measured concentration in lysates was normalized to the volume of erythrocyte pellet in samples.

[1] = test system: normal human bronchial epithelium (NHBE); experiment: Accumulation and retention in human primary cells, NHBE; type: in vitro ADME; details: mean (SD)
Method: Accumulation and retention in human primary cells was determined as described in detail previously (Stepanic et al., [2011]). Briefly, normal human bronchial epithelial cells (NHBE, CC‐2541, Lonza), normal human lung fibroblasts (NHLF, CC‐2512, Lonza), and bronchial smooth muscle cells (BSMC, CC‐2576, Lonza) were cultivated according to the protocols of the suppliers. Human polymorphonuclear cells (PMN) and monocytes from healthy volunteers were isolated from buffy coats. Monocytes were isolated by negative selection on magnetic separator. Monocyte‐derived macrophages (MDM) were obtained by cultivating monocytes with 5 ng·ml^−1 rhGMCSF for 10 days. To determine compound accumulation cells were incubated with 3–10 μM of compounds in their corresponding culture medium for 3 h at 37°C in 5% CO2, washed, and lysed. To measure cellular retention of compounds, after being washed, drug‐loaded cells were incubated in fresh medium for 3 h, washed, and lysed. Compound concentrations were determined by HPLC–MS/MS analysis and expressed as % of azithromycin measurements.

Structure (SMILES) | initially accumulated amount retained in the erythrocytes (human erythrocytes) [%] | accumulation ([1]; 3 h) | retention ([1]; 3 h in fresh medium)
CC[C@H]1OC(=O)[C@H](C)[C@@H](O[C@H]2C[C@@](C)(OC)[C@@H](O)[C@H](C)O2)[C@H](C)[C@@H](O[C@@H]2O[C@H](C)C[C@H](N(C)C)[C@H]2O)[C@](C)(O)C[C@@H](C)CN(C)[C@H](C)[C@@H](O)[C@]1(C)O [Azithromycin, reference compound] | 10 | – | –
CC[C@H]1OC(=O)[C@H](C)[C@@H](O[C@H]2C[C@@](C)(OC)[C@@H](O)[C@H](C)O2)[C@H](C)[C@@H](O[C@@H]2O[C@H](C)C[C@H](N(C)C)[C@H]2O)[C@](C)(O)C[C@@H](C)CN(CCCNc2ccnc3cc(Cl)ccc23)[C@H](C)[C@@H](O)[C@]1(C)O [Compound 1] | – | 162 (3) % azithromycin | 123 (11) % azithromycin
